Results from BindingDB's records for doi:10.1021/acs.jmedchem.6b01507 (East China University of Science and Technology, 2017).

Biological target: T1, Leukotriene A-4 hydrolase (Homo sapiens, UniProt P09960)
T1 sequence (P09960 whole entry): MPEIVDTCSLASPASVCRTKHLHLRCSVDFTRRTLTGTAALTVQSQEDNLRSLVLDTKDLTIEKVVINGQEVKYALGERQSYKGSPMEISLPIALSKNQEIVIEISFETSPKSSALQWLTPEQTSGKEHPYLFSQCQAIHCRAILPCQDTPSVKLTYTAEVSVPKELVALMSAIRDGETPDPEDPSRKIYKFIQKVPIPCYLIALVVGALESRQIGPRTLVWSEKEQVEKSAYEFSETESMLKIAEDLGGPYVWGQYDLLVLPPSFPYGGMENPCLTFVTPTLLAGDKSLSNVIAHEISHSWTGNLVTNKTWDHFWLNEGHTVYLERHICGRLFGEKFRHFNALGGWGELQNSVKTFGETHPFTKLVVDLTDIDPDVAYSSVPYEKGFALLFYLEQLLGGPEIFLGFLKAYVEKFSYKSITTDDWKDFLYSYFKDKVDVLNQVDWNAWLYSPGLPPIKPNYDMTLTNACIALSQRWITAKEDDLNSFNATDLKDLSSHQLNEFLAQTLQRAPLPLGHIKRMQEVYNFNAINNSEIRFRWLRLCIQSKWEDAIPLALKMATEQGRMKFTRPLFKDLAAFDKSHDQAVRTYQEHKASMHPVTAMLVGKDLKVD
Assay: Inhibition of recombinant human LTA4H Epoxide Hydrolase expressed in Escherichia coli BL21 (DE3) pLysS preincubated for 10 mins followed by addition of LTA4 as substrate measured after 15 mins by reverse-phase HPLC analysis

CN(C)Cc1cccc(S(=O)(=O)n2ccc(/C=C/C(=O)NO)c2)c1
IC50: > 10 µM
